ChEMBL document CHEMBL1137138, “Synthesis and antiviral activity of P1' arylsulfonamide azacyclic urea HIV protease inhibitors” (Bioorg Med Chem Lett, 2004)

Legend:
[1] = Antiviral activity against HIV virus; type: functional
[2] = Antiviral activity against HIV virus in absence of human serum; type: functional
[3] = Antiviral activity against HIV virus in presence of 50% human serum; type: functional
[4] = biological target: Human immunodeficiency virus type 1 protease (Human immunodeficiency virus 1, UniProt Q72874); test: Tested for inhibition of HIV protease

Structure (SMILES) | EC50 [1] [nM] | EC50 [2] [nM] | EC50 [3] [nM] | further results
O=C1N(Cc2ccc(O)cc2)[C@H](Cc2ccccc2)[C@H](O)CN(S(=O)(=O)c2cccc(Br)c2)N1Cc1ccc(O)cc1 | 420 |  |  | 
CCCCN1C(=O)N(Cc2cccc(C(=N)NO)c2)[C@H](Cc2ccccc2)[C@H](O)CN1S(=O)(=O)c1cccc([N+](=O)[O-])c1 |  | 40 | 370 | 
CCCCN1C(=O)N(Cc2cccc(C(=N)NO)c2)[C@H](Cc2ccccc2)[C@H](O)CN1S(=O)(=O)c1cccc(Br)c1 |  | 160 | 2490 | 
C=Cc1cccc(S(=O)(=O)N2C[C@@H](O)[C@@H](Cc3ccccc3)N(Cc3cccc(C(=N)NO)c3)C(=O)N2CCCC)c1 |  | 220 | 1860 | 
Cc1cccc(S(=O)(=O)N2C[C@@H](O)[C@@H](Cc3ccccc3)N(Cc3ccc(O)cc3)C(=O)N2Cc2ccc(O)cc2)c1 | 920 |  |  | 
O=C1N(Cc2ccc(O)cc2)[C@H](Cc2ccccc2)[C@H](O)CN(S(=O)(=O)c2ccc(C(F)(F)F)cc2)N1Cc1ccc(O)cc1 | 1100 |  |  | 
CCCCN1C(=O)N(Cc2cccc(C(=N)NO)c2)[C@H](Cc2ccccc2)[C@H](O)CN1S(=O)(=O)c1cccc(C(C)O)c1 (stereo not given in full) |  | 40 | 850 | 
N#Cc1cccc(S(=O)(=O)N2C[C@@H](O)[C@@H](Cc3ccccc3)N(Cc3ccc(O)cc3)C(=O)N2Cc2ccc(O)cc2)c1 | 200 |  |  | 
COc1cccc(S(=O)(=O)N2C[C@@H](O)[C@@H](Cc3ccccc3)N(Cc3ccc(O)cc3)C(=O)N2Cc2ccc(O)cc2)c1 | 460 |  |  | 
CCCCN1C(=O)N(Cc2cccc(C(=N)NO)c2)[C@H](Cc2ccccc2)[C@H](O)CN1S(=O)(=O)c1cccc(N)c1 |  | 30 | 2380 | 
CCCCN1C(=O)N(Cc2cccc(C(=N)NO)c2)[C@H](Cc2ccccc2)[C@H](O)CN1S(=O)(=O)c1cccc(C(C)=O)c1 |  | 150 | 1090 | 
Cc1ccc(S(=O)(=O)N2C[C@@H](O)[C@@H](Cc3ccccc3)N(Cc3ccc(O)cc3)C(=O)N2Cc2ccc(O)cc2)cc1 | 870 |  |  | 
CCCCN1C(=O)N(Cc2cccc(C(=N)NO)c2)[C@H](Cc2ccccc2)[C@H](O)CN1S(=O)(=O)c1cccc(/C(C)=N\O)c1 |  | 20 | 400 | 
O=C1N(Cc2ccc(O)cc2)[C@H](Cc2ccccc2)[C@H](O)CN(S(=O)(=O)c2cc(Cl)cc(Cl)c2)N1Cc1ccc(O)cc1 | 670 |  |  | 
O=C1N(Cc2ccc(O)cc2)[C@H](Cc2ccccc2)[C@H](O)CN(S(=O)(=O)c2ccc(Cl)cc2)N1Cc1ccc(O)cc1 | 1100 |  |  | 
Cc1ccccc1S(=O)(=O)N1C[C@@H](O)[C@@H](Cc2ccccc2)N(Cc2ccc(O)cc2)C(=O)N1Cc1ccc(O)cc1 | 230 |  |  | 
O=C1N(Cc2ccc(O)cc2)[C@H](Cc2ccccc2)[C@H](O)CN(S(=O)(=O)c2ccccc2)N1Cc1ccc(O)cc1 | 450 |  |  | Ki [4]: 1.37 nM
CCCCN1C(=O)N(Cc2cccc(C(=N)NO)c2)[C@H](Cc2ccccc2)[C@H](O)CN1S(=O)(=O)c1cccc(O)c1 |  | 150 | 2560 | 
O=C1N(Cc2ccc(O)cc2)[C@H](Cc2ccccc2)[C@H](O)CN(S(=O)(=O)c2ccc(Cl)c(Cl)c2)N1Cc1ccc(O)cc1 | 940 |  |  | 
O=C1N(Cc2ccc(O)cc2)[C@H](Cc2ccccc2)[C@H](O)CN(S(=O)(=O)c2cccc(Cl)c2Cl)N1Cc1ccc(O)cc1 | 560 |  |  | 
O=C1N(Cc2ccc(O)cc2)[C@H](Cc2ccccc2)[C@H](O)CN(S(=O)(=O)c2cccc([N+](=O)[O-])c2)N1Cc1ccc(O)cc1 | 810 |  |  | 
COc1ccc(S(=O)(=O)N2C[C@@H](O)[C@@H](Cc3ccccc3)N(Cc3ccc(O)cc3)C(=O)N2Cc2ccc(O)cc2)cc1 | 750 |  |  | 
O=C(c1ccccc1)N1C[C@@H](O)[C@@H](Cc2ccccc2)N(Cc2ccc(O)cc2)C(=O)N1Cc1ccc(O)cc1 |  |  |  | Ki [4]: 0.01 nM
O=C1N(Cc2ccc(O)cc2)[C@H](Cc2ccccc2)[C@H](O)CN(S(=O)(=O)c2ccc(Cl)cc2Cl)N1Cc1ccc(O)cc1 | 3200 |  |  | 
O=C1N(Cc2ccc(O)cc2)[C@H](Cc2ccccc2)[C@H](O)CN(S(=O)(=O)c2cccc(F)c2)N1Cc1ccc(O)cc1 | 590 |  |  | 
CCCCN1C(=O)N(Cc2cccc(C(=N)NO)c2)[C@H](Cc2ccccc2)[C@H](O)CN1S(=O)(=O)c1cccc(OC)c1 |  |  | 560 | 
